Assay results as given in US7129246B2, “N-adamantlmethyl derivatives and intermediates as pharmaceutical compositions and processes for their preparation” (AstraZeneca AB, priority 2001, dated 2006).
Counter-ions that a name gives are not always drawn.

Assays:
[1] = molecular target: T1, P2X7 receptor (Homo sapiens, UniProt Q99572); assay: P2X7 receptor antagonist test: bbATP-induced ethidium bromide fluorescence in THP-1 cells; format: cell-based; conditions: bbATP agonist, 37° C. for one hour, read-out: pIC50 (negative logarithm of the concentration of test compound necessary to reduce the bbATP agonist activity by 50%) (converted)
T1 construct: 200 μl of a suspension of THP-1 cells; endogenous in cells; host or cells: THP-1 cells
T1 sequence (Q99572 1-595): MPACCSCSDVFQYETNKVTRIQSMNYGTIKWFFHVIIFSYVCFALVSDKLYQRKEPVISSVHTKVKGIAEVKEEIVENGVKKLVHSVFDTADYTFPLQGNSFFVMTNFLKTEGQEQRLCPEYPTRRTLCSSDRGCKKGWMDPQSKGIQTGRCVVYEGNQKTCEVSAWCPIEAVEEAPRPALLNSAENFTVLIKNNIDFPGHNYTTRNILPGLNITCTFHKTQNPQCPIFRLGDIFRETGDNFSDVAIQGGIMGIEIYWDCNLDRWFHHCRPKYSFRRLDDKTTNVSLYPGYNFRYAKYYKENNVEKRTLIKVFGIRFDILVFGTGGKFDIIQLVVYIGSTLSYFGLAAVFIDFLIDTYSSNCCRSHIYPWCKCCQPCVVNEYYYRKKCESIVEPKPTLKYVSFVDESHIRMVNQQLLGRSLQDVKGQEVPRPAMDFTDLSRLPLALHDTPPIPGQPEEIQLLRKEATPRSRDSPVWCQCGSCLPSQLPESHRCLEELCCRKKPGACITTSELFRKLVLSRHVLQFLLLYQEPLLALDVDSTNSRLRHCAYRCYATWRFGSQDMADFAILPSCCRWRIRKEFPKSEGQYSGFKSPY
Description: Certain compounds such as benzoylbenzoyl adenosine triphosphate (bbATP) are known to be agonists of the P2X7 receptor, effecting the formation of pores in the plasma membrane (Drug Development Research (1996), 37(3) p. 126). Consequently, when the receptor is activated using bbATP in the presence of ethidium bromide (a fluorescent DNA probe), an increase in the fluorescence of intracellular DNA-bound ethidium bromide is observed. The increase in fluorescence can be used as a measure of P2X7 receptor activation and therefore to quantify the effect of a compound on the P2X7 receptor.
In this manner, each of the title compounds of the Examples was tested for antagonist activity at the P2X7 receptor. Thus, the test was performed in 96-well flat bottomed microtitre plates, the wells being filled with 250 μl of test solution comprising 200 μl of a suspension of THP-1 cells (2.5×10^6 cells/ml) containing 10^−4M ethidium bromide, 25 μl of a high potassium buffer solution containing 10^−5M bbATP, and 25 μl of the high potassium buffer solution containing 3×10^−5M test compound. The plate was covered with a plastics sheet and incubated at 37° C. for one hour. The plate was then read in a Perkin-Elmer fluorescent plate reader, excitation 520 nm, emission 595 nm, slit widths: Ex 15 nm, Em 20 nm. […]

SMILES | melting point | IC50 [1] [nM]
O=C(NCC12CC3CC(CC(C3)C1)C2)c1cc(CCCNCCCO)cnc1Cl [Example 3, N-(1-Adamantylmethyl)-2-chloro-5-{3-[(3-hydroxypropyl)amino]propyl}nicotinamide] | 105 to 107 °C | 
C[C@@H](O)CNCCCc1cc(C(=O)NCC23CC4CC(CC(C4)C2)C3)c(Cl)cn1 (as salt: hydrochloride) [Example 28, N-(1-Adamantylmethyl)-5-chloro-2-(3-{[(2R)-2-hydroxypropyl]amino}propyl)isonicotinamide, dihydrochloride] | 224 to 226 °C | 
C[C@@H](CO)NCCCc1cc(C(=O)NCC23CC4CC(CC(C4)C2)C3)c(Cl)cn1 (as salt: hydrochloride) [Example 10, N-(1-Adamantylmethyl)-5-chloro-2-(3-{[(1S)-2-hydroxy-1-methylethyl]amino}propyl)isonicotinamide, dihydrochloride] | 205 to 208 °C | 
C[C@H](CO)NCCCc1cc(C(=O)NCC23CC4CC(CC(C4)C2)C3)c(Cl)cn1 (as salt: hydrochloride) [Example 9, N-(1-Adamantylmethyl)-5-chloro-2-(3-{[(1R)-2-hydroxy-1-methylethyl]amino}propyl)isonicotinamide, dihydrochloride] | 205 to 208 °C | 
CN(CCO)CCCc1cc(C(=O)NCC23CC4CC(CC(C4)C2)C3)c(Cl)cn1 [Example 26, N-(1-Adamantylmethyl)-5chloro-2-{3-[(2-hydroxyethyl)(methyl)amino]propyl}isonicotinamide dihydrochloride] |  | 15.8
O=C(NCC12CC3CC(CC(C3)C1)C2)c1cc(OCCNCCCO)ncc1Cl [Example 12, N-(1-Adamantylmethyl)-5-chloro-2-{2-[(3-hydroxypropyl)amino]ethoxy}isonicotinamide, hydrochloride] |  | 79.4
CNCCNCCCc1cc(C(=O)NCC23CC4CC(CC(C4)C2)C3)c(Cl)cn1 (as salt: hydrochloride) [Example 21, N-(1-Adamantylmethyl)-5-chloro-2-(3-{[2-(methylamino)ethyl]amino}propyl)isonicotinamide dihydrochloride] | 216 to 219 °C | 
CCNCCCc1cc(C(=O)NCC23CC4CC(CC(C4)C2)C3)c(Cl)cn1 (as salt: hydrochloride) [Example 7, N-(1-Adamantylmethyl)-5-chloro-2-[3-(ethylamino)propyl]isonicotinamide hydrochloride] | 206 to 208 °C (dec.) | 
O=C(NCC12CC3CC(CC(C3)C1)C2)c1cc(CCCNCCO)ncc1Cl (as salt: hydrochloride) [Example 11, N-(1-Adamantylmethyl)5-chloro-2-{3-[(2-hydroxyethyl)amino]propyl}-isonicotinamide hydrochloride] | 204 to 205 °C (dec.) | 
CNCCCNCCCc1cc(C(=O)NCC23CC4CC(CC(C4)C2)C3)c(Cl)cn1 (as salt: trifluoroacetate) [Example 22, N-(1-Adamantylmethyl)-5-chloro-2-(3-{[3-(methylamino)propyl]amino}propyl)isonicotinamide bis(trifluoroacetate)] | 210 to 212 °C | 
O=C(NCC12CC3CC(CC(C3)C1)C2)c1cc(CCCNCCCO)ncc1Cl [Example 1, N-(1-Adamantylmethyl)-5-chloro-2-{3-[(3-hydroxypropyl)-amino]propyl}isonicotinamide] | 84 to 85 °C | 
O=C(NCC12CC3CC(CC(C3)C1)C2)c1cc(CNCCNCCO)ncc1Cl (as salt: hydrochloride) [Example 30, N-(1-Adamantylmethyl)-5-chloro-2-[({2-[(2-hydroxyethyl)amino]ethyl}amino)methyl]isonicotinamide dihydrochloride] | 289 to 292 °C | 
CNCCNCc1cc(C(=O)NCC23CC4CC(CC(C4)C2)C3)c(Cl)cn1 (as salt: hydrochloride) [Example 31, N-(1-Adamantylmethyl)-5-chloro-2-({[2-(methylamino)ethyl]amino}methyl)isonicotinamide dihydrochloride] | 259 to 262 °C | 
O=C(NCC12CC3CC(CC(C3)C1)C2)c1cc(CCCNC(CO)CO)ncc1Cl (as salt: hydrochloride) [Example 25, N-(1-Adamantylmethyl)-5-chloro-2-(3-{[2-hydroxy-1-(hydroxymethyl)ethyl]amino}propyl)isonicotinamide dihydrochloride] | 201 to 203 °C | 
O=C(NCC12CC3CC(CC(C3)C1)C2)c1cc(CCCNC[C@@H](O)CO)ncc1Cl (as salt: hydrochloride) [Example 16, N-(1-Adamantylmethyl)-5-chloro-2-(3-{[(2R)-2,3-dihydroxypropyl]amino}propyl)isonicotinamide, dihydrochloride] | 217 to 219 °C | 
O=C(NCC12CC3CC(CC(C3)C1)C2)c1cc(CCNCCO)ncc1Cl (as salt: hydrochloride) [Example 32, N-(1-Adamantylmethyl)-5-chloro-2-{3-[(2-hydroxyethyl)amino]ethyl}isonicotinamide dihydrochloride] | 242 to 244 °C | 
O=C(NCC12CC3CC(CC(C3)C1)C2)c1cc(CCCNCCNCCO)ncc1Cl (as salt: hydrochloride) [Example 23, N-(1-Adamantylmethyl)-5-chloro-2-[3-({2-[(2-hydroxyethyl)amino]ethyl}amino)propyl]isonicotinamide dihydrochloride] | 231 to 233 °C | 
O=C(NCC12CC3CC(CC(C3)C1)C2)c1cc(CCNCCCO)ncc1Cl (as salt: hydrochloride) [Example 33, N-(1-Adamantylmethyl)-5-chloro-2-{3-[(3-hydroxypropyl)amino]ethyl}isonicotinamide dihydrochloride] | 240 to 242 °C | 
CNCCCNCc1cc(C(=O)NCC23CC4CC(CC(C4)C2)C3)c(Cl)cn1 (as salt: hydrochloride) [Example 29, N-(1-Adamantylmethyl)-5chloro-2-({[3-(methylamino)propyl]amino}methyl)isonicotinamide dihydrochloride] | 285 to 287 °C | 
CC(C)(O)CNCCCc1cc(C(=O)NCC23CC4CC(CC(C4)C2)C3)c(Cl)cn1 (as salt: hydrochloride) [Example 19, N-(1-Adamantylmethyl)-5-chloro-2-{3-[(2-hydroxy-2-methylpropyl)amino]propyl}isonicotinamide dihydrochloride] | 236 to 238 °C | 
CNCCCc1cc(C(=O)NCC23CC4CC(CC(C4)C2)C3)c(Cl)cn1 (as salt: hydrochloride) [Example 34, N-(1-Adamantylmethyl)-5-chloro2-[3-(methylamino)propyl]isonicotinamide hydrochloride] | 210 to 212 °C | 
NCCCc1cc(C(=O)NCC23CC4CC(CC(C4)C2)C3)c(Cl)cn1 (as salt: hydrochloride) [Example 6, N-(1-Adamantylmethyl)-2-(3-aminopropyl)-5-chloroisonicotinamide hydrochloride] | 150 °C (dec.) | 
CN(CCO)CCCc1cc(C(=O)NCC23CC4CC(CC(C4)C2)C3)c(Cl)cn1 (as salt: hydrochloride) [Example 26, N-(1-Adamantylmethyl)-5chloro-2-{3-[(2-hydroxyethyl)(methyl)amino]propyl}isonicotinamide dihydrochloride] | 206 to 208 °C | 
